Test results as given in US11465965B2, “Double-headed protease inhibitor” (UBE INDUSTRIES, LTD., priority 2017, dated 2022).
Counter-ions that a name gives are not always drawn. Like-named read-outs stand apart in the source and are kept apart here.

Assays:
[1] = molecular target: T1, Human recombinant trypsin (Homo sapiens, UniProt P07477); test: Human trypsin inhibition test; format: biochemical; details: 20 minutes after reaction start, read-out: Inhibition rate (trypsin); for inhibition at 0.001 µM: compound concentration 1 nM; for inhibition at 0.01 µM: compound concentration 10 nM; for inhibition at 0.1 µM: compound concentration 100 nM
T1 construct: purchased Wako Pure Chemical Industries, Ltd. 206-17171
Procedure: (Test Example 2): Human Trypsin Inhibition Test
Human recombinant trypsin (manufactured by Wako Pure Chemical Industries, Ltd., code no.: 206-17171) was diluted with an assay buffer (0.1 M Tris-HCl (pH8.0), 0.15 M NaCl, 10 mM CaCl2, 0.05% Brij35) to prepare a 10 ng/mL enzyme solution. Then, Boc-Phe-Ser-Arg-MCA (manufactured by PEPTIDE INSTITUTE, INC., code no.: 3107-v) was diluted with the assay buffer to prepare a 40 μM substrate solution. Each test compound was dissolved into DMSO, then diluted with the assay buffer 100 times, and further appropriately diluted with an assay buffer comprising 1% DMSO to prepare each compound solution. 10 μL of the compound solution, 15 μL of the assay buffer, and 50 μL of the substrate solution were added to a 96 well black plate (manufactured by Thermo Fisher Scientific Inc., code no.: 9502867), mixed, and then 25 μL of the enzyme solution was added thereto, and mixed to start the reaction. Fluorescence intensities at excitation wavelength 355 nm and fluorescence wavelength of 460 nm were measured by using a fluorescence plate reader (Flex station 3) (Test compound addition group). Also, the same reaction as described above except for not adding each test compound was carried out (Test compound non-addition group). Additionally, the same reaction as described above except for not adding each test compound and the enzyme was carried out (Control group). Inhibition rate was calculated by the following equation using fluorescence intensity after 20 minutes of reaction start. Inhibition rate (%)=(1−(fluorescence intensity of Test compound addition group−fluorescence intensity of Control group)[…](fluorescence intensity of Test compound non-addition group−fluorescence intensity of Control group))×100

HFD-fed mouse = test: Fecal protein concentration-increasing test by single administration using HFD-fed mouse; format: in vivo; details: 24 h, HFD-fed mice, vs vehicle group, read-out: Ratio for an increase of protein concentration in feces; for response vs control in vivo at 30 mg/kg: single oral dose 30 mg/kg
Description: (Test Example 3): Fecal Protein Concentration-Increasing Test by Single Administration Using HFD-Fed Mouse
High fat diet-fed (HFD-fed) mice (D-12492 diet, male, ICR, 6 week old) were orally administered with a 0.5 W/V % methylcellulose suspension comprising each test compound (Compound administration group, 4 or 5 mice/group) or a 0.5 W/V % methylcellulose suspension (Compound non-administration group (Vehicle group), 5, 6, or 7 mice/group), and whole feces of the day were collected. Dried feces were dissolved into a 0.5N aqueous sodium hydroxide solution, followed by centrifugation at 3500 rpm. Then each protein concentration in the resulting supernatant was determined (Lowry method), and the ratio for an increase of protein concentration in feces was calculated by the following equation using the protein concentration in feces contained in 1 g of feces (mg/g feces). Ratio for an increase of protein concentration in feces−(average protein concentration in feces of Compound administration group)[…](average protein concentration in feces of Compound non-administration group)

[2] = molecular target: T2, Human recombinant enteropeptidase (Homo sapiens, UniProt P98073); test: Human enteropeptidase inhibition test; format: biochemical; details: read-out: Inhibition rate (enteropeptidase); for inhibition at 0.001 µM: compound concentration 1 nM
T2 construct: purchased BIO Vision Inc. 7529-50
T2 sequence (P98073 whole entry): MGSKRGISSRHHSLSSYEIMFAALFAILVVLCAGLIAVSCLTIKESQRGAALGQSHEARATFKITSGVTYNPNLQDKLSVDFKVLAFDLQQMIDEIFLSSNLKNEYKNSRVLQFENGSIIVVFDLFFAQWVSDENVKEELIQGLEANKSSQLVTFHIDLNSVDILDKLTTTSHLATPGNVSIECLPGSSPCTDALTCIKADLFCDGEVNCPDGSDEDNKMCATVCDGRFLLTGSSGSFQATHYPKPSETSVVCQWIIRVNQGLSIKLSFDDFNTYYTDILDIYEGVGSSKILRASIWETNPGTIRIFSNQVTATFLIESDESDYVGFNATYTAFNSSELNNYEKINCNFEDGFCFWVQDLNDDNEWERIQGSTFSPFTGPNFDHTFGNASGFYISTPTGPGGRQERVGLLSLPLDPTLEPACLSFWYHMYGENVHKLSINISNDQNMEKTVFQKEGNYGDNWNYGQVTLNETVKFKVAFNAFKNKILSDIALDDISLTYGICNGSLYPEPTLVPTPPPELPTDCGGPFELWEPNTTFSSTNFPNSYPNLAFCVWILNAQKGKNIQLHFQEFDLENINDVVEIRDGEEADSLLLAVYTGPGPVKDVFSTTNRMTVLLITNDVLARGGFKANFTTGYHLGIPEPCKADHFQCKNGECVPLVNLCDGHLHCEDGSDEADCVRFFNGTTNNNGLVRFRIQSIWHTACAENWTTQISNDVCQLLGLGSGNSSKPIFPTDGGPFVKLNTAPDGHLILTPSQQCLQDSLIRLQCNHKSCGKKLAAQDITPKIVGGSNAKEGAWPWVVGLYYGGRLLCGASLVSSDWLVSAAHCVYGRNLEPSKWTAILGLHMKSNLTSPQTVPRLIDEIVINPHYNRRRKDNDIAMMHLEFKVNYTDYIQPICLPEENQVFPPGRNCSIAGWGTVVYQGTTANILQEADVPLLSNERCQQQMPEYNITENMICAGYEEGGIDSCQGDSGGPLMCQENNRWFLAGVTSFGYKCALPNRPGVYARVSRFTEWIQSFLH
Procedure: (Test Example 1): Human Enteropeptidase Inhibition Test
Human recombinant enteropeptidase (manufactured by BIO Vision Inc., catalog no.: 7529-50) was diluted with an assay buffer (50 mM tricine (pH8.0), 0.01 W/V % Tween 20, 10 mM CaCl2) to prepare an […] enzyme solution. Then, 5FAM-Abu-Gly-Asp-Asp-Lys-Ile-Val-Gly-Gly-Lys (CPQ2)-Lys-Lys-NH2 (manufactured by CHINESE PEPTIDE COMPANY, purity: 94.5) was diluted with the assay buffer to prepare a 1.5 μM substrate solution. Each test compound was dissolved into DMSO, then diluted with the assay buffer 100 times, and further appropriately diluted with an assay buffer comprising 1% DMSO to prepare each compound solution. 10 μL of the compound solution, 15 μL of the assay buffer, and 50 μL of the substrate solution were added to a 96 well black plate (manufactured by Thermo Fisher Scientific Inc., code no.: 9502867), mixed, then 25 μL of the enzyme solution was added thereto, and mixed to start the reaction. Fluorescence intensities at excitation wavelength 485 nm and fluorescence wavelength 535 nm were measured by using a fluorescence plate reader (Flex station 3) (Test compound addition group). Also, the same reaction as described above except for not adding each test compound was carried out (Test compound non-addition group). Additionally, the same reaction as described above except for not adding each test compound and the enzyme was carried out (Control group). Inhibition rate was calculated by the following equation using fluorescence intensity after 20 minutes of reaction start. Inhibition rate (%)=(1−(fluorescence intensity of Test compound addition group−fluorescence intensity of Control group)÷(fluorescence intensity of Test compound non-addition group−fluorescence intensity of Control group))×100

DIO mouse = test: Anti-obesity effect test using DIO mouse; format: in vivo; details: 336 h, DIO mice, vs vehicle group, read-out: Weight loss rate; for inhibition in vivo at 25 mg/kg: oral 25 mg/kg once daily for 2 weeks
Procedure: (Test Example 4): Anti-Obesity Effect Test Using DIO Mouse
Diet-induced obesity (DIO) mice (D-12492 diet, male, C57BL-DIO, 26 to 28-week old) were orally administered with a 0.5 W/V % methylcellulose suspension comprising each test compound (Compound administration group, 5 or 6 mice/group) or a 0.5 W/V % methylcellulose suspension (Compound non-administration group (Vehicle group), 6 mice/group) once daily for 2 weeks. Weight loss rate was calculated by the following equation. Weight loss rate (%) of each Compound administration group−(1−average weight at the last day of the test of each Compound administration group/average weight at the last day of the test of Vehicle group)×100

[3] = 20 minutes after reaction start
[4] = compound concentration 10 nM, 20 minutes after reaction start
[5] = compound concentration 100 nM, 20 minutes after reaction start

| SMILES | inhibition at 0.001 µM [1] [%] | inhibition at 0.01 µM [1] [%] | inhibition at 0.1 µM [1] [%] | response vs control in vivo at 86 mg/kg (HFD-fed mouse; single oral dose 86 mg/kg) [%] | inhibition at 0.001 µM [2, 3] [%] | inhibition at 0.01 µM [2, 4] [%] | inhibition at 0.1 µM [2, 5] [%] | response vs control in vivo at 30 mg/kg (HFD-fed mouse) [%] | inhibition at 0.01 µM [2] [%] | inhibition at 0.1 µM [2] [%] | response vs control in vivo at 89 mg/kg (HFD-fed mouse; single oral dose 89 mg/kg) [%] | inhibition in vivo at 90 mg/kg (DIO mouse; oral 90 mg/kg once daily for 2 weeks) [%] | inhibition in vivo at 25 mg/kg (DIO mouse) [%] |
| --- | --- | --- | --- | --- | --- | --- | --- | --- | --- | --- | --- | --- | --- |
| N=C(N)Nc1ccc(C(=O)Oc2ccc(CNS(=O)(=O)N(CCOCCOCCN([C@@H](CC(=O)O)C(=O)O)S(=O)(=O)NCc3ccc(OC(=O)c4ccc(NC(=N)N)cc4)cc3)[C@@H](CC(=O)O)C(=O)O)cc2)cc1 [2-(b), (2S,13S)-3,12-bis(N-(4-((4-guanidinobenzoyl)oxy)benzyl)sulfamoyl)-6,9-dioxa-3,12-diazatetradecane-1,2,13,14-tetracarboxylic acid trifluoroacetate] | ≥ 50 | ≥ 50 | ≥ 50 | ≥ 130 | ≥ 50 | ≥ 50 | ≥ 50 | – | – | – | – | – | – |
| N=C(N)Nc1ccc(C(=O)Oc2ccc(CNS(=O)(=O)N(CCOCCOCCOCCN([C@@H](CC(=O)O)C(=O)O)S(=O)(=O)NCc3ccc(OC(=O)c4ccc(NC(=N)N)cc4)cc3)[C@@H](CC(=O)O)C(=O)O)cc2)cc1 [3-(b), (2S,163)-3,15-bis(N-(4-((4-guanidinobenzoyl)oxy)benzyl)sulfamoyl)-6,9,12-trioxa-3,15-diazaheptadecane-1,2,16,17-tetracarboxylic acid trifluoroacetate] | ≥ 50 | ≥ 50 | ≥ 50 | – | ≥ 50 | ≥ 50 | ≥ 50 | ≥ 130 | – | – | – | – | – |
| N=C(N)Nc1ccc(C(=O)Oc2ccc(CNS(=O)(=O)N(CCOCCOCCOCCOCCOCCN([C@@H](CC(=O)O)C(=O)O)S(=O)(=O)NCc3ccc(OC(=O)c4ccc(NC(=N)N)cc4)cc3)[C@@H](CC(=O)O)C(=O)O)cc2)cc1 [5-(b), (2S,22S)-3,21-bis(N-(4-((4-guanidinobenzoyl)oxy)benzyl)sulfamoyl)-6,9,12,15,18-pentaoxa-3,21-diazatricosane-1,2,22,23-tetracarboxylic acid trifluoroacetate] | ≥ 50 | ≥ 50 | ≥ 50 | – | – | – | – | ≥ 130 | ≥ 50 | ≥ 50 | – | – | – |
| N=C(N)Nc1ccc(C(=O)Oc2ccc(CNS(=O)(=O)N(CCOCCOCCOCCOCCOCCOCCN([C@@H](CC(=O)O)C(=O)O)S(=O)(=O)NCc3ccc(OC(=O)c4ccc(NC(=N)N)cc4)cc3)[C@@H](CC(=O)O)C(=O)O)cc2)cc1 [6-(b), (2S,25S)-3,24-bis(N-(4-((4-guanidinobenzoyl)oxy)benzyl)sulfamoyl)-6,9,12,15,18,21-hexaoxa-3,24-diazahexacosane-1,2,25,26-tetracarboxylic acid trifluoroacetate] | – | ≥ 50 | ≥ 50 | – | – | – | – | ≥ 130 | ≥ 50 | ≥ 50 | – | – | – |
| N=C(N)Nc1ccc(C(=O)Oc2ccc(CNS(=O)(=O)N(CCCCN([C@@H](CC(=O)O)C(=O)O)S(=O)(=O)NCc3ccc(OC(=O)c4ccc(NC(=N)N)cc4)cc3)[C@@H](CC(=O)O)C(=O)O)cc2)cc1 [8-(c), (2S,2′S)-2,2′-(butane-1,4-diylbis((N-(4-((4-guanidinobenzoyl)oxy)benzyl)sulfamoyl)azanediyl))disuccinic acid hydrochloride] | – | – | – | – | – | – | – | ≥ 130 | – | – | – | – | – |
| N=C(N)Nc1ccc(C(=O)Oc2ccc(COC(=O)N(CC(=O)N[C@@H](CC(=O)O)C(=O)NCCOCCOCCOCCOCCNC(=O)[C@H](CC(=O)O)NC(=O)CN(Cc3cccc(C(=O)O)c3)C(=O)OCc3ccc(OC(=O)c4ccc(NC(=N)N)cc4)cc3)Cc3cccc(C(=O)O)c3)cc2)cc1 [14-(b), (3S,22S)-3,22-bis(2-((3-carboxybenzyl) (((4-((4-guanidinobenzoyl)oxy)benzyl)oxy)carbonyl)amino)acetamido)-4,21-dioxo-8,1,14,17-tetraoxa-5,20-diazatetracosane-1,24-dioic acid trifluoroacetate] | ≥ 50 | ≥ 50 | ≥ 50 | – | – | ≥ 50 | ≥ 50 | – | – | – | ≥ 130 | ≥ 4 | – |
| N=C(N)Nc1ccc2c(c1)CCCOc1c(cccc1C(=O)N(CCOCCOCCN(C(=O)c1cccc3c1OCCCc1cc(NC(=N)N)ccc1C(=O)O3)[C@@H](CC(=O)O)C(=O)O)[C@@H](CC(=O)O)C(=O)O)OC2=O [20-(b), (2S,13S)-3,12-bis(10-guanidino-13-oxo-6,7,8,13-tetrahydrodibenzo[b,f][1,4]dioxecin-4-carbonyl)-6,9-dioxa-3,12-diazatetradecane-1,2,13,14-tetracarboxylic acid trifluoroacetate] | ≥ 50 | ≥ 50 | ≥ 50 | – | ≥ 50 | ≥ 50 | ≥ 50 | ≥ 130 | – | – | – | – | ≥ 4 |
| N=C(N)Nc1ccc2c(c1)CCCOc1c(cccc1C(=O)N(CCOCCOCCN(C(=O)c1cccc3c1OCCCc1cc(NC(=N)N)ccc1C(=O)O3)[C@H](CC(=O)O)C(=O)O)[C@H](CC(=O)O)C(=O)O)OC2=O [21-(b), (2R,13R)-3,12-bis(10-guanidino-13-oxo-6,7,8,13-tetrahydrodibenzo[b,f][1,4]dioxecin-4-carbonyl)-6,9-dioxa-3,12-diazatetradecane-1,2,13,14-tetracarboxylic acid trifluoroacetate] | – | ≥ 50 | ≥ 50 | – | ≥ 50 | ≥ 50 | ≥ 50 | ≥ 130 | – | – | – | – | ≥ 4 |
